Columns and labels:
topoisomerase IIα = topoisomerase IIα (Homo sapiens, UniProt P11388); test: kDNA decatenation assay; format: biochemical
Description: To assess whether CC-I is a human topoisomerase IIα inhibitor, we determined the ability of CC-I to inhibit topoisomerase IIα activity using a kDNA decatenation assay.

[1] = system: U87-MG or CCF-STTG1 glioma cells; test: Intracranial orthotopic xenograft brain tumor model; settings: 25 mg/kg i.p. once a week for 7 weeks
Protocol: The effect of CC-I in an intracranial, orthotopic xenograft brain tumor model was analysed. The caudate putamen region of female, athymic nude mice was injected with 10^6 human U87-MG (Temodar®-sensitive) or CCF-STTG1 (Temodar®-resistant) glioma cells in a volume of 10 μl. At one week post-injection, tumor volume was measured using Ti weighted MRI contrast (7T MR imaging system). Thereafter, CC-I was injected intraperitoneally, once a week for 7 weeks at a concentration of 25 mg/kg body weight. Tumor size was measured weekly. […] Liver and kidney toxicity (total bilirubin, blood urea nitrogen (BUN), creatine, aspartate aminotransferase (SGOT/AST), alanine aminotransferase (SGPT/ALT), and alkaline phosphatase) were also determined using an automated chemistry analyzer machine (Roche Cobase MIRA) and kits manufactured by Thermo Electron.

human topoisomerase I = human topoisomerase I (Homo sapiens, UniProt P11387); test: Supercoiled pBR322 DNA relaxation assay; format: biochemical; settings: concentrations as high as 50 μg/ml
Description: To determine whether CC-I is a specific inhibitor of topoisomerase I or IIα, the ability of CC-I to inhibit topoisomerases I and IIα activity was examined using a supercoiled DNA relaxation assay.

MCF10A = test: Cytotoxicity, MCF10A; format: cell-based, human; settings: immortalized, non-transformed mammary epithelial cell line
Protocol: Human glioma cells were ordered from American Type Culture Collection (ATCC, Manassas, Va.), and maintained in DMEM with 4×10^−3M L-glutamine, 100 U/ml penicillin, 100 μg/ml streptomycin, and 10% fetal bovine serum (FBS). All experiments were performed at 37° C. in 5% CO2 atmosphere under cell culture conditions. Prior to γ-radiation or exposure to chemotherapeutic agents, the glioma cells were plated at a density of 156 to 8,000 cells per well in 96 well plates to account for differences in growth rates, and to obtain similar cell densities for the experimental manipulations, and cultured overnight. Then cells received different dosages of γ-radiation from a ^60Co source GammaCell 220 (Nordion International Inc, Ontario, Canada) or chemotherapeutic agents for another 2-6 days. Cell cytotoxicity assay was determined by MTS [3-(4,5-dimethylthiazol-2-yl)-5-(3-carboxymethoxyphenyl)-2-(4-sulfophenyl)-2H-tetrazolium, inner salt] Cell Proliferation Assay (Promega, Madison, Wis.) or sulforhodamine B (SRB) assay at the end of the exposure period (47, 48).

MCF7 = test: Cytotoxicity, MCF7; format: cell-based; settings: human breast adenocarcinoma cell line
Protocol: Human neuroblastoma cell lines were cultured in Dulbecco's Modified Eagle Medium (DMEM)/F12 media. Human glioma cells were ordered from American Type Culture Collection (ATCC, Manassas, Va.), and maintained in DMEM with 4×10^−3M L-glutamine, 100 U/ml penicillin, 100 μg/ml streptomycin, and 10% fetal bovine serum (FBS). All experiments were performed at 37° C. in 5% CO2 atmosphere under cell culture conditions. Prior to γ-radiation or exposure to chemotherapeutic agents, the glioma cells were plated at a density of 156 to 8,000 cells per well in 96 well plates to account for differences in growth rates, and to obtain similar cell densities for the experimental manipulations, and cultured overnight. […] Cell cytotoxicity assay was determined by MTS [3-(4,5-dimethylthiazol-2-yl)-5-(3-carboxymethoxyphenyl)-2-(4-sulfophenyl)-2H-tetrazolium, inner salt] Cell Proliferation Assay (Promega, Madison, Wis.) or sulforhodamine B (SRB) assay at the end of the exposure period (47, 48).

[2] = system: Human Astrocyte (Normal cells); test: Cytotoxicity, normal human astrocytes; format: cell-based
Protocol: The human astrocyte cells were cultured from brains of deceased amyotrophic lateral sclerosis (ALS) patients (Uniform Anatomic Gift Act of 1987). The cerebrum was isolated from the other brain regions and meninges and placed in calcium and magnesium-free Hank's buffered salt solution (CMF-HBSS). The cerebrum was diced, incubated with trypsin/EDTA (Gibco BRL, Grand Island, N.Y.) and triturated with DNase. Tissue was passed through a 135 μm Nitex screen (SEFAR America, Depew, N.Y.), washed twice with CMF-HBSS, re-suspended in media (DMEM/10% FBS, 7.5 mM glucose, 4 mM L-glutamine, 1,000 U/mL penicillin, […], 2.5 μg/mL amphotericin B), centrifuged and passed through two sets of 35 μm Nitex screens. Dissociated cells was plated in poly-D-lysine pre-coated 175 cm^2 flasks. The mixed glial cultures were grown for 14 days, and then shaken to dislodge microglia cells and oligodendrocytes that were discarded. The pure astrocytes were attached to the bottom of the flask.

A549 cells = test: pXC50 on A549 cells (later tests); format: cell-based

Chain of human topoisomerase I (P11387 whole entry): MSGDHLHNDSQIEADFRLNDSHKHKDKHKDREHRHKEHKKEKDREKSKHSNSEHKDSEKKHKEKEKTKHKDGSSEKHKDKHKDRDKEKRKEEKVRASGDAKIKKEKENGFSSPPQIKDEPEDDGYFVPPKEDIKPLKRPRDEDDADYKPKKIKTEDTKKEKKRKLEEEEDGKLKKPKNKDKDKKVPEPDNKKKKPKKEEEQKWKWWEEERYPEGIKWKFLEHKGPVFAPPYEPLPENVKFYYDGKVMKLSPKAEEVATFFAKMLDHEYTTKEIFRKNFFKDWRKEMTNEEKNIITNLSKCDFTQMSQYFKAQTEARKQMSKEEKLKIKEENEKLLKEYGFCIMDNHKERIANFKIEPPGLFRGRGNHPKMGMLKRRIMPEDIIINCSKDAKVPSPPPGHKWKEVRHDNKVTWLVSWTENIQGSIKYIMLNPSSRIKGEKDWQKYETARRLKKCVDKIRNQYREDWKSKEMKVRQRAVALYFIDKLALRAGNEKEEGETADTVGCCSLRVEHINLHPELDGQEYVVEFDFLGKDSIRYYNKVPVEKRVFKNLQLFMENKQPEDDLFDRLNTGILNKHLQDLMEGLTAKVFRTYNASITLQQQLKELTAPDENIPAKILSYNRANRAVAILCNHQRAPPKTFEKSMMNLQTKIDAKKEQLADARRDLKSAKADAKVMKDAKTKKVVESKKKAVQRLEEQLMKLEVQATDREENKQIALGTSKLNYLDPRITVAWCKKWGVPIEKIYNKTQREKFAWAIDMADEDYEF
Chain of topoisomerase IIα (P11388 whole entry): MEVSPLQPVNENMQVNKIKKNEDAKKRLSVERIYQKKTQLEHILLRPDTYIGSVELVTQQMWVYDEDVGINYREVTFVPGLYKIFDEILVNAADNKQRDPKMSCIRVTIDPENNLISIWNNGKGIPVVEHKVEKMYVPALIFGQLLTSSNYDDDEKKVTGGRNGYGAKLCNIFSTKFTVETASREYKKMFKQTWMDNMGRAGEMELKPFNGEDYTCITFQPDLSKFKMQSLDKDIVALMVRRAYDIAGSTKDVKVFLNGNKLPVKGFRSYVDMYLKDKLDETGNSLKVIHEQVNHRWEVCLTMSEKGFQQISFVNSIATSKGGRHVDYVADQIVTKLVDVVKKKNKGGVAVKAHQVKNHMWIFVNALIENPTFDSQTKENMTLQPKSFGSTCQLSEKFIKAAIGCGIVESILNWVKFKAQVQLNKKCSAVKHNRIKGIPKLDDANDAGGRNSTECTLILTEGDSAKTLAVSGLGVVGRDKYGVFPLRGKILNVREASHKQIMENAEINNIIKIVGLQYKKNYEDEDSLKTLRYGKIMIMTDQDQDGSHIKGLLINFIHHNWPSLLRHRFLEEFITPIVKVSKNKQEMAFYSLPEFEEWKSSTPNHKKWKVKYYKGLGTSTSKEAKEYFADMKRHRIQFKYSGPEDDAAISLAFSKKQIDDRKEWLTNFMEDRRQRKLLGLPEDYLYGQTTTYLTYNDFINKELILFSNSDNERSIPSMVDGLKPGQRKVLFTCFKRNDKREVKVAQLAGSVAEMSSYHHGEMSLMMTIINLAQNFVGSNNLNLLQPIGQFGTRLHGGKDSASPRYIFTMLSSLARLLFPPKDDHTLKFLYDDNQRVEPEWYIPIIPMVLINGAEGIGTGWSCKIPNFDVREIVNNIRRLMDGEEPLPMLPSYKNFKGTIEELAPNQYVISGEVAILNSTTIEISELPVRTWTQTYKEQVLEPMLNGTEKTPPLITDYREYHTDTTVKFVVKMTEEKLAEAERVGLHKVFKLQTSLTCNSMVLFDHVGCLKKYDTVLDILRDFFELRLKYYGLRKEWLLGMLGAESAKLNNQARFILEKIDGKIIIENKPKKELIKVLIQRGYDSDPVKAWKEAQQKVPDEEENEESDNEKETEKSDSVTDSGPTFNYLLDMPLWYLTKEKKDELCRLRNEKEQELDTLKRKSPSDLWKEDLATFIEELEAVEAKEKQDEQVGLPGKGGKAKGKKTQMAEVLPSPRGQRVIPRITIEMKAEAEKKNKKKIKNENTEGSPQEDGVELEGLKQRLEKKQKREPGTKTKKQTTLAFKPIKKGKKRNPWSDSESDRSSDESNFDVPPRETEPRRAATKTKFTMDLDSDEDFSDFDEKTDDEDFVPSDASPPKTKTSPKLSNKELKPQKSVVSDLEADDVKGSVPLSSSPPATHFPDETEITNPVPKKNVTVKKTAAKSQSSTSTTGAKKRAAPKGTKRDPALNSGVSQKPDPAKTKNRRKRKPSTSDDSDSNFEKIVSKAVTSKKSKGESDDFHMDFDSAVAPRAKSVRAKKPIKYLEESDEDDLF

Question: How did the “concentration completely inhibiting topoisomerase IIα catalyzed kDNA decatenation” value (topoisomerase IIα) turn out when `CCN1C(=O)C(=C/C=C/c2ccco2)C(=O)NC1=S` [CC-I] was run?
Answer: The value was “greater than 6 μg/ml”.

Question: And the “body weight of mice” value [1]?
Answer: Its value is “not affected”.

Question: And the “liver and kidney toxicity (blood chemistry)” value [1]?
Answer: Its value is “no liver or kidney toxicity”.

Question: What about the “survival of tumor-bearing mice” value [1] of the same molecule?
Answer: Its value is “extended survival”.

Question: What about the intracranial tumor growth ([1]; Temodar-resistant and -sensitive tumors) of the same molecule?
Answer: The intracranial tumor growth was “inhibited tumor growth”.

Question: What about the “effect on topoisomerase I activity” value (human topoisomerase I) of the same molecule?
Answer: The value was “no effect”.

Question: And the IC50 (MCF10A)?
Answer: The IC50 was 6.5 µM.

Question: And the IC50 (MCF7)?
Answer: Its IC50 is 15.6 µM.

Question: And the “toxicity to normal human astrocytes” value ([2]; at concentrations toxic to Temodar-resistant glioma cells)?
Answer: Its value is “not toxic”.

Question: What about the IC50 ([2]; normal cells) of the same molecule?
Answer: The IC50 was 16.4 µM.

Question: And the pXC50 (A549 cells)?
Answer: Its pXC50 is 4.5.
